From patent US20200078471A1, “RENAL CLEARABLE DRUG DELIVERING NANOPARTICLES AND METHODS OF USE THEREFOR” (priority 2018, published 2020)
“Also recorded” adds a separate entry of the source.

How the values were obtained:
[1] = Maximal tolerated dose, single dose; conditions: single i.v. dose, 10 days
Method: (§1) Toxicity studies. […] For blood chemistry study, the blood was collected through cardiac puncture 15 days p.i. and kept on ice for 30 min for coagulation. […] The organs and tissues were also collected, fixed in formalin (10%) and embedded in paraffin before H&E staining and pathological evaluation. […] The mice were sacrificed on 10 days p.i. and the blood were extracted via cardiac puncture.

[2] = DOX and AuNP biodistribution in organs and tissues; type: in vivo, CD-1 mice
Description: (§2) Clearance, physiological stability, and elimination. […] The DOX concentrations were quantified based on fluorescence analysis.

[3] = Pharmacokinetic study, DOX in blood
Method: Clearance, physiological stability, and elimination. […] Since DOX is highly fluorescent, the fluorescence signals were collected at 610 nm with excitation at 470 nm. […] Extraction was performed at −20° C. for overnight and supernatant was obtained after centrifugation at 15,000 g for 10 min. The DOX concentrations were quantified based on fluorescence analysis. […] For pharmacokinetic study, the DOX concentrations in blood were analysed using HPLC with the same approach described above.

[4] = Acute toxicity, successive treatment (body weight, blood chemistry, H&E)
Method: as §1

[5] = test system: MCF-7 human breast cancer xenograft; experiment: Tumor targeting efficiency; type: in vivo, nude mice; conditions: 12 hr p.i., DOX 5 mg/kg i.v.
Method: Tumor targeting, penetration and antitumor efficacy studies. […] The tumors were collected and homogenized and DOX concentrations were measured using the same approaches described in the biodistribution studies. The ex vivo tumor fluorescence imaging was acquired using a Carestream Molecular imaging system In-Vivo FX PRO with an excitation filter of 470±10 nm and an emission filter of 600±20 nm. […] The mice were sacrificed 12 hr and 3 days p.i. respectively. Tumor tissues were fixed, embedded in paraffin and sliced before haematoxylin and eosin (H&E), and silver staining. To enable visualization of AuNPs in the tumor issues, dewaxed tumor slides were incubated with silver nitrate (0.1 M) and hydroquinone (2 mM) for 15 min at room temperature, followed by washing with pure water and haemotoxylin and eosin staining (Du et al., 2017). […] The length (L) and width (W) of the tumors were measured with a digital calliper and the volume (V) was calculated by the equation V=½ LW^2. The body weights were also monitored during the treatment. […] For survival study, the tumor bearing mice were treated same with therapeutic study, and tumor sizes were monitored. […] To establish the metastatic lung cancer model, female Balb/c mice were implanted with 4T1 mammary cancer cells subcutaneously and the cancer cells would be readily developed as lung metastatic nodules after a week.

4T1 lung metastasis = experiment: Metastatic lung cancer model, nodule count and size; type: in vivo, female Balb/c mice; conditions: 5 mg/kg DOX equivalent ×5, day 23
[6] = Renal clearance (urine DOX by HPLC, gold by ICP-MS); type: in vivo, female CD-1 mice; conditions: 24 hr p.i., intravenous
Description: as §2

[7] = equivalent DOX 5 mg/kg ×5, within 10 days

SMILES: COc1cccc2c1C(=O)c1c(O)c3c(c(O)c1C2=O)C[C@@](O)(C(=O)CO)C[C@@H]3O[C@H]1C[C@H](N)[C@H](O)[C@H](C)O1 [free DOX, doxorubicin]
- maximal tolerance dose (MTD, in terms of DOX) [1]: 10 mg/kg body weight
- DOX distribution in the kidneys ([2]; 1 hr p.i.): 11.4 % ID/g
- DOX accumulation in the liver ([2]; 24 h p.i.): even lower accumulation in the liver
- decrease of muscle DOX from 1 to 24 h ([2]; mouse, in vivo): 19.7%
- 24-h area under curve (AUC) ([3]; DOX in blood): 2.2 % ID·h/g
- distribution half-life t1/2a ([3]; plasma, CD-1 mice): 4.8 min
- hepatocyte anisocaryosis and anisocytosis (H&E liver) ([4]; 15 days p.i.): increase in hepatocyte anisocaryosis and anisocytosis; also recorded: evident
- hepatocyte nuclei size distribution width ([4]; 15 days p.i.): significant higher distribution width
- pathological signs in heart, kidney, spleen and muscle ([4]; 15 days p.i.): no observable pathological signs
- blood chemistry, liver function (ALT, AST, ALKP, albumin) ([4]; 15 days p.i., 5 mg/kg ×5): increased alanine aminotransferase (ALT) and aspartate aminotransferase (AST) levels and decreased alkaline phosphatase (ALKP) and albumin levels in serum
- blood chemistry, renal function (BUN, CREA) ([4]; 15 days p.i., 5 mg/kg ×5): increased blood urea nitrogen (BUN) and creatinine (CREA) levels in serum
- body weight loss [4, 7]: ~10%
- mortality [4, 7]: 25%
- tumor targeting of DOX [5]: 0.79±0.22 % ID/g
- count of metastatic tumor nodules in the lungs (per mouse) (4T1 lung metastasis): 62.6±30.5
- size of metastatic lung tumor nodules (4T1 lung metastasis): 1.64±0.77 mm
- DOX-based renal clearance (renally cleared DOX) [6]: 6.1±1.1 % ID
